System: CT26.WT
Assay: Subcutaneous syngeneic CT26.WT colon carcinoma mouse model, ARI-001 with anti-mCTLA-4 antibody (Example 153)
Type: in vivo
Experimental: In this example, the in vivo anti-tumor efficacy of ARI-001, an antibody against mouse CTLA-4 (mCTLA-4), and a combination of the two agents was evaluated using the subcutaneous syngeneic CT26.WT (aka CT-26) colon carcinoma mouse model.
CT26.WT cells were obtained from the ATCC and grown in RPMI 1640 medium supplemented with 10% FBS at 37° C. in a 5% CO2 atmosphere. Female Envigo BALB/c mice (BALB/cANNHsd) of 5-6 weeks old were implanted subcutaneously in the right axilla (high) on Day 0 with 5.0×10^5 cells/mouse in 200 μl using a 27-gauge needle and syringe.
ARI-001 powder was dissolved in 100% DMSO to obtain a 106.67 mg/ml dosing formulation with a pH of 7.6. The dosing solution was stored at room temperature and protected from light. The anti-mCTLA-4 9D9 was obtained from BioXcell.
All mice were sorted into study groups based on caliper estimation of tumor burden. Each study group had ten mice. The mice were distributed to ensure that the mean tumor burden for all groups was within 10% of the overall mean tumor burden for the study population. Treatment began on Day 7 at an overall mean tumor burden of 89 mm^3 (range of group means, 87-91 mm^3). All mice were dosed according to individual body weight on the day of treatment (0.2 mL/20 g for anti-mCTLA-4 and vehicle (PBS), 30 μL/20 g for ARI-001 and vehicle (DMSO)). All agents were given to the mice intraperitoneally.
Tumor measurements were recorded three times weekly. Tumor burden (mm^3) was estimated from caliper measurements by the formula for the volume of a prolate ellipsoid assuming unit density as:
Tumor burden(mm^3)=(L×W^2)/2,
The primary endpoints used to evaluate efficacy at the group level were: tumor growth delay, increased time to progression (% ITP), median ΔT/ΔC, complete and partial tumor response, and the number of tumor-free survivors at the end of the study. Tumor growth delay for this experiment was evaluated at 750 mm^3. Time to progression study for this experiment was evaluated at 2,000 mm^3. This is the IACUC required tumor burden limit, and the time to euthanasia can be thought of as a surrogate for lifespan.
In this experiment, median ΔT/ΔC was evaluated when the median control tumor burden reached 1,000 mm^3 (Day 17). A mouse was considered a putative responder if it met at least one of the following criteria: complete regression of the tumor or being at least two standard deviations larger than the median time to progression of the control group. The following are the definitions of the efficacy parameters mentioned above: ΔC and ΔT are individual mouse endpoints that are calculated for each mouse as follows:
Median ΔT/ΔC is a group endpoint. It is calculated for each day of treatment as:
The results are presented as %. When the median ΔT/ΔC is negative (the median treated tumor burden is regressing), the median ΔT/ΔC is not reported and the Median % Regression is reported instead.
Time to Evaluation Size (TES)—TES is an individual mouse endpoint and it is expressed in days from tumor implant. It is the time it takes the tumor burden to reach a specified value, and it can be calculated from any method of evaluating tumor burden (caliper measurements, BLI, anatomical imaging, etc.). It is calculated by log-linear interpolation between the two closest data points that bracket the chosen tumor burden.
Time to Progression (TP)—Time to progression is a surrogate for lifespan, time on study, or lifespan. It is used for studies that involve IACUC mandated euthanasia of animals for excessive tumor burdens (even if the animals otherwise appear normal). The mandated tumor burden limit is tumor model dependent. TP data is analyzed by Kaplan Meier methods just as traditional life span data. The Time to Progression for an individual animal is the number of days between initiation of treatment and the death or required euthanasia of that animal. […]

COC(=O)c1csc(C(=O)c2c[nH]c3ccccc23)n1 [ARI-001]
Incidence of putative responders (CT26.WT, ARI-001 160 mg/kg/inj., 9D9 10 mg/kg/inj.): 70%
Tumor Growth Delay (CT26.WT, ARI-001 160 mg/kg/inj., 9D9 10 mg/kg/inj., intraperitoneally): 2.9 days
Day 17 Median ΔT/ΔC (Day 17, ARI-001 160 mg/kg/inj., 9D9 10 mg/kg/inj., intraperitoneally): 44%
CR (complete response): 0%
MBW Change (mean body weight change during treatment, ARI-001 160 mg/kg/inj., 9D9 10 mg/kg/inj., intraperitoneally): −8.3%
Increase in MTP (median time to progression, 2,000 mm^3, relative to Group 1): 40%

— US20230054194A1, “Methods of Treating Cancer” (ARIAGEN, INC., priority 2018, published 2023)
